Tests used:
[1] = system: STZ-induced diabetic rat model; assay: Retinal function (ERG light sensitivity) in STZ-induced diabetic rat model; type: in vivo; settings: STZ diabetic rats, 1.8 mg/kg orally twice daily for 5 weeks; group 3 compared to diabetic vehicle group 2
Protocol: Male Brown Norway rats (BN rats) were obtained from Charles River (Germany). Hyperglycemia was induced by i.p. injections of STZ (65 mg/kg body weight). […] API was used in the form of its hydrochloride. Retinal function was assessed via electroretinography (ERG) recordings. ERG is a non-invasive electrophysiological technique to assess light-induced electrical activity of different retinal neurons, and allows for quantifying different aspects of retinal function such as dim light or color vision. After induction of diabetes via i.p. STZ application (day 1), diabetic (hyperglycemic) animals were randomized into groups of similar blood glucose concentrations (>20 mM at day 5). At week 5 post diabetes induction, ERG recordings were performed to quantify the extent of neuronal dysfunction in the retina. […] The light sensitivity of rod-driven ERG b-wave responses is a measure for the number of neurons participating in the rod-driven retinal pathway (in particular photoreceptors and downstream bipolar cells), and their sensitivity towards light stimuli in order to produce depolarizing light responses. […]

[2] = system: oxygen-induced retinopathy (OIR) mouse model; assay: Neovascular tuft formation in oxygen-induced retinopathy (OIR) mouse model; settings: neonatal mice, 1.8 mg/kg s.c. at P12 and P14, read at P16, vs vehicle control
Protocol: Application volume was 10 ml/kg. Control animals received vehicle only.
In this context P means postnatal day. […] Starting from P12, the avascular area begins to revascularize and at the same time neovascular tufts protrude towards the vitreous. At P16 and P17, aberrant pathological neovascularization peaks and revascularization is still incomplete. Mouse eyes were enucleated, fixed in 4% PFA for at least 24 h, and embedded in paraffin. Every 3rd slide from serial sections (6 μm thick) was taken from around the region of the optic nerve. The PAS-stained sections were examined for the presence of neovascular tufts projecting into the vitreous from the inner limiting membrane of the retina. The neovascular score was defined as the mean number of neovascular cell nuclei per section found in ten sections (five on each side of the optic nerve) per eye. Tufts adjacent to the optic nerve (up to 90 μm from each side) were discriminated from counting. Data are represented as mean of 10 slides ±SEM counted tuft cells with one-way ANOVA testing and p<0.05 regarded as significant.

AOC3 = biological target: T1, AOC3 (Mus musculus, UniProt O70423); assay: AOC3 activity in sentinel lung tissue homogenates of OIR mice; settings: 1.8 mg/kg s.c.
T1 sequence (O70423 1-765): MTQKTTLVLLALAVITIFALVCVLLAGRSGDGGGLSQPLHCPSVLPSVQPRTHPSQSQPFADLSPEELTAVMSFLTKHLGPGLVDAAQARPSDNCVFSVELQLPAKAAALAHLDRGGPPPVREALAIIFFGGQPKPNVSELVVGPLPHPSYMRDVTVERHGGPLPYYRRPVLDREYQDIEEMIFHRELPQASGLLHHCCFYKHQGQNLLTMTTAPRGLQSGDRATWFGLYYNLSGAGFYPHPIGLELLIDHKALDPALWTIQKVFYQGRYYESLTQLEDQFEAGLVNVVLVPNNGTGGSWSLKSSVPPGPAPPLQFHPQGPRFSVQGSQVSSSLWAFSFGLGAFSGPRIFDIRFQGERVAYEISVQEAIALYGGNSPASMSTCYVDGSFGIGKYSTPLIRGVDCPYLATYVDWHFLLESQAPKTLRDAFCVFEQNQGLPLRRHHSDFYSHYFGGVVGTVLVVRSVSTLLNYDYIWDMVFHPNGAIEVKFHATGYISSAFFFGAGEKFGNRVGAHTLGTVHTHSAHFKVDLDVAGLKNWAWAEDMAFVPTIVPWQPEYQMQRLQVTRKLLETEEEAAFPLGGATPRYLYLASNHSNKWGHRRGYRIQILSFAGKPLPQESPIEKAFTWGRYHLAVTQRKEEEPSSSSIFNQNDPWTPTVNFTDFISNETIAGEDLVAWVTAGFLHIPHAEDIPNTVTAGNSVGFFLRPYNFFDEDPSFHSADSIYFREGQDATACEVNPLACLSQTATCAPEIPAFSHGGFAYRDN

Compound | Increase in normalized light sensitivity of rod-driven ERG b-wave responses [1] [%] | Reduction of retinal neovascular tuft formation (tuft number) [2] [%] | Inhibition of AOC3 activity in sentinel lung tissue homogenates (AOC3)
CC(C)(C)NC(=O)c1ccc(OC/C(=C/F)CN)cc1 [API, (E)-4-(2-(aminomethyl)-3-fluoroallyloxy)-N-tert-butylbenzamide] | ~30 | 49 | –
C[C@@H]1C[C@H]2[C@@H]3CCC4=CC(=O)C=C[C@]4(C)[C@@]3(F)[C@@H](O)C[C@]2(C)[C@@]1(O)C(=O)CO [Dexamethasone] | – | 57 | no significant effect

Reference: US10603292B2 (Boehringer Ingelheim International GmbH, priority 2017, dated 2020)
